The subject of this test is P388 leukemia ip, CD2F1 mice, survival T/C. Put plainly: NCI In Vivo Anticancer Drug Screen. Data for tumor model P388 Leukemia (intraperitoneal) in CD2F1 (CDF1) mice. To be noted: endpoint: median survival time, higher = longer survival. The method, boiled down: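 Mice carrying the transplanted tumor received test compound or vehicle. Survival was recorded in each group, and the value is the treated-group measurement divided by that of the vehicle-treated control group.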

Setting [1] is: dose: 12.5 mg/kg/injection, schedule: Q01DX009 (ip), vehicle: saline.
Where [2] appears, read: dose: 50.0 mg/kg/injection, schedule: Q01DX009 (ip), vehicle: saline with Tween-80.
Setting [3] is: dose: 100.0 mg/kg/injection, schedule: Q01DX009 (ip), vehicle: saline with Tween-80.
The mark [4] stands for this setting: dose: 60.0 mg/kg/injection, schedule: Q01DX005 (ip), vehicle: saline with Tween-80.
The mark [5] stands for this setting: dose: 120.0 mg/kg/injection, schedule: Q01DX005 (ip), vehicle: saline with Tween-80.
The mark [6] stands for this setting: dose: 240.0 mg/kg/injection, schedule: Q01DX005 (ip), vehicle: saline with Tween-80.
Setting [7] is: dose: 50.0 mg/kg/injection, schedule: Q01DX009 (ip), vehicle: other.
Setting [8] is: dose: 100.0 mg/kg/injection, schedule: Q01DX009 (ip), vehicle: other.

SMILES strings stand for the structures. “And” between values parts separate entries of the source, which are not always exact repeats. Identical values can stand only once. Toxic doses and inconclusive results are not listed.

In the case of `COc1ccccc1C1NC(c2ccccc2OC)C2CCCC1C2O` (centres undefined), the T/C by setting is: (dose: 100.0 mg/kg/injection, schedule: Q04DX003 (ip), vehicle: saline) 98 % of control; (dose: 200.0 mg/kg/injection, schedule: Q04DX003 (ip), vehicle: saline) 97 % of control; (dose: 400.0 mg/kg/injection, schedule: Q04DX003 (ip), vehicle: saline) 95 % of control.

Turning to `Nc1n[nH]c2c3c([nH]c(=O)c12)-c1ccccc1SC3`, the T/C by setting is: (dose: 100.0 mg/kg/injection, schedule: Q04DX002 (ip), vehicle: Klucel (hydroxypropylcellulose) (HPC)) 102 % of control; (dose: 200.0 mg/kg/injection, schedule: Q04DX002 (ip), vehicle: Klucel (hydroxypropylcellulose) (HPC)) 88 % of control; (dose: 400.0 mg/kg/injection, schedule: Q04DX002 (ip), vehicle: Klucel (hydroxypropylcellulose) (HPC)) 86 % of control.

With `COC(=O)C1c2cc3c(c(O)c2C(O)CC1(C)O)C(=O)c1c(O)cc2c(c1C3=O)OC1OC2(C)C(O)C(N(C)C)C1O` (centres undefined), the T/C was 100 % of control (dose: 25.0 mg/kg/injection, schedule: Q01DX010 (ip), vehicle: saline); 90 % of control (dose: 50.0 mg/kg/injection, schedule: Q01DX010 (ip), vehicle: saline); 100 % of control (dose: 100.0 mg/kg/injection, schedule: Q01DX010 (ip), vehicle: saline); 100 % of control (dose: 200.0 mg/kg/injection, schedule: Q01DX010 (ip), vehicle: saline).

As for `N#CC(Br)(Br)C#N`, the T/C reads like this: (dose: 3.13 mg/kg/injection, schedule: Q01DX009 (ip), vehicle: Klucel (hydroxypropylcellulose) (HPC)) 117 % of control; (dose: 6.25 mg/kg/injection, schedule: Q01DX009 (ip), vehicle: Klucel (hydroxypropylcellulose) (HPC)) 114 % of control.

Take `N#CC1=C(C#N)C(=O)C(Cl)=C(Cl)C1=O`: the T/C was 109 % of control (dose: 3.13 mg/kg/injection, schedule: Q01DX009 (ip), vehicle: saline); 118 % of control (dose: 6.25 mg/kg/injection, schedule: Q01DX009 (ip), vehicle: saline); 95 % of control (dose: 6.25 mg/kg/injection, schedule: Q04DX002 (ip), vehicle: saline); 95 % of control (dose: 6.25 mg/kg/injection, schedule: Q04DX003 (ip), vehicle: saline); 118 % of control under setting [1]; 109 % of control (dose: 12.5 mg/kg/injection, schedule: Q04DX002 (ip), vehicle: saline). The T/C was 113 % of control (dose: 12.5 mg/kg/injection, schedule: Q04DX003 (ip), vehicle: saline); 117 % of control (dose: 25.0 mg/kg/injection, schedule: Q04DX002 (ip), vehicle: saline with Tween-80); 116 % of control (dose: 25.0 mg/kg/injection, schedule: Q04DX002 (ip), vehicle: saline); 95 % of control (dose: 62.5 mg/kg/injection, schedule: Q01DX005 (ip), vehicle: saline); 113 % of control (dose: 125.0 mg/kg/injection, schedule: Q01DX005 (ip), vehicle: saline); 94 % of control (dose: 250.0 mg/kg/injection, schedule: Q01DX005 (ip), vehicle: saline).

`NC(=S)N/N=C\C12CC3CC(CC(C3)C1)C2`: the T/C was 96 % of control under setting [2] and 108 % of control under setting [3].

For `O=C(NCCCl)Nc1[nH]c(=O)ncc1Cl`, the T/C runs as follows: under setting [4], 103 % of control; under setting [5], 100 % of control; under setting [6], 101 % of control.

Regarding `O=[N+]([O-])c1ccc2c(N=Nc3ccc4ccccc4c3O)c(O)cc(S(=O)(=O)O)c2c1`, the T/C is 90 % of control under setting [3]; 95 % of control (dose: 100.0 mg/kg/injection, schedule: Q04DX003 (ip), vehicle: saline with Tween-80); 100 % of control (dose: 200.0 mg/kg/injection, schedule: Q04DX003 (ip), vehicle: saline with Tween-80); 100 % of control (dose: 400.0 mg/kg/injection, schedule: Q04DX003 (ip), vehicle: saline with Tween-80).

As for `CCOC(=O)/C(=C\c1cccc(OC)c1OC)CC(=O)O`, the T/C is 102 % of control (dose: 25.0 mg/kg/injection, schedule: Q01DX009 (ip), vehicle: other); 107 % of control under setting [7]; 98 % of control under setting [8]; 112 % of control (dose: 200.0 mg/kg/injection, schedule: Q01DX009 (ip), vehicle: other); 111 % of control (dose: 400.0 mg/kg/injection, schedule: Q01DX009 (ip), vehicle: other).

On to `CN(C)CCN(C)c1cccc2c1C(=O)c1cscc1C2=O`, for which the T/C was 100 % of control (dose: 25.0 mg/kg/injection, schedule: Q01DX005 (ip), vehicle: saline); 100 % of control and 92 % of control (dose: 50.0 mg/kg/injection, schedule: Q01DX005 (ip), vehicle: saline).

Consider `O=C(NO)c1cc(O)c(O)c(O)c1`, for which the T/C was 121 % of control (dose: 50.0 mg/kg/injection, schedule: Q01DX005 (ip), vehicle: distilled water + Tween-80); 168 % of control (dose: 100.0 mg/kg/injection, schedule: Q01DX009 (ip), vehicle: distilled water + Tween-80); 155 % of control (dose: 200.0 mg/kg/injection, schedule: Q01DX005 (ip), vehicle: distilled water + Tween-80); 197 % of control (dose: 200.0 mg/kg/injection, schedule: Q01DX009 (ip), vehicle: distilled water + Tween-80).

Consider `O=S1(=O)c2ccccc2N(c2ccccc2)c2nnnn21`, for which the T/C by setting is: under setting [4], 88 % of control; under setting [5], 96 % of control; under setting [6], 99 % of control.

In the case of `COC1(OC)OC(c2ccccc2)=C(C#N)C(c2ccc(Cl)cc2)C1(OC)OC` (centres undefined), the T/C was 96 % of control (dose: 60.0 mg/kg/injection, schedule: Q01DX005 (ip), vehicle: Klucel (hydroxypropylcellulose) (HPC)); 94 % of control (dose: 120.0 mg/kg/injection, schedule: Q01DX005 (ip), vehicle: Klucel (hydroxypropylcellulose) (HPC)); 88 % of control (dose: 240.0 mg/kg/injection, schedule: Q01DX005 (ip), vehicle: Klucel (hydroxypropylcellulose) (HPC)).

In the case of `FC(F)(Cl)c1nc2nc(Cl)c(Cl)nc2[nH]1`, the T/C by setting is: under setting [7], 100 % of control; (dose: 50.0 mg/kg/injection, schedule: Q04DX003 (ip), vehicle: other) 95 % of control; under setting [8], 114 % of control; (dose: 100.0 mg/kg/injection, schedule: Q04DX003 (ip), vehicle: other) 110 % of control; (dose: 200.0 mg/kg/injection, schedule: Q04DX003 (ip), vehicle: other) 105 % of control.

As to `CN(C)c1ccc(/C=C\c2cccc[n+]2C)cc1`, the T/C is, setting by setting: (dose: 0.39 mg/kg/injection, schedule: Q01DX009 (ip), vehicle: saline) 99 % of control and 100 % of control; (dose: 0.78 mg/kg/injection, schedule: Q01DX009 (ip), vehicle: saline) 100 % of control and 106 % of control; (dose: 1.56 mg/kg/injection, schedule: Q01DX009 (ip), vehicle: saline) 100 % of control and 105 % of control; (dose: 3.12 mg/kg/injection, schedule: Q01DX009 (ip), vehicle: saline) 109 % of control and 114 % of control.

Turning to `O=c1[nH]cnc2n[nH]nc12`, the T/C by setting is: (dose: 12.5 mg/kg/injection, schedule: Q01DX009 (ip), vehicle: saline with Tween-80) 107 % of control; (dose: 25.0 mg/kg/injection, schedule: Q01DX009 (ip), vehicle: saline with Tween-80) 100 % of control; under setting [2], 117 % of control; under setting [3], 109 % of control; (dose: 200.0 mg/kg/injection, schedule: Q01DX009 (ip), vehicle: saline with Tween-80) 121 % of control.

Take `Cc1cc(OC(=O)Nc2ccc(C)c([N+](=O)[O-])c2)c(Br)cc1Cl`: the T/C is 100 % of control under setting [1]; 93 % of control (dose: 25.0 mg/kg/injection, schedule: Q01DX009 (ip), vehicle: saline); 96 % of control (dose: 50.0 mg/kg/injection, schedule: Q01DX009 (ip), vehicle: saline + alcohol); 100 % of control (dose: 50.0 mg/kg/injection, schedule: Q01DX009 (ip), vehicle: saline); 99 % of control (dose: 100.0 mg/kg/injection, schedule: Q01DX009 (ip), vehicle: saline + alcohol).

For the origin of these results see PubChem BioAssay AID330 (DTP/NCI, 2004).
